# Tests used:
# [1] = test system: PCK rats; experiment: Body, liver and kidney weight in PCK rats treated with octreotide; assay type: in vivo, rat
# Method: (§1) Each group was divided into two subgroups. […] Each animal was injected intraperitoneally every 12 hours. […] The control groups received an equal volume of saline.
# [2] = test system: cAMP levels in bile ducts and serum of PCK rats; experiment: cAMP levels in freshly isolated bile ducts and serum of PCK rats treated with octreotide; assay type: in vivo, rat
# Method: The concentration of cAMP was measured in freshly isolated and cultured bile ducts and in serum. Serum was diluted 1:10 before assay. Cultured bile ducts were first released from the gel by adding 0.4 mL of high-activity type XI collagenase for 45 min. at 37° C. and washing twice with medium. cAMP concentrations were determined using the Bridge-It™ cAMP designer assay (Mediomics, LLC, St. Louis, Mo.). Results were expressed as pmol per μg of DNA. The amount of DNA in a single IBDU was determined using the DNeasy Tissue Kit (QIAGEN Inc., Valencia, Calif.).
# as §1
# [3] = molecular target: somatostatin receptor 2 (SSTR2) (Homo sapiens, UniProt P30874); conditions: Froidevaux and Eberle 2002; cited from earlier work
# somatostatin receptor 2 (SSTR2), sequence (P30874 whole entry, species assumed): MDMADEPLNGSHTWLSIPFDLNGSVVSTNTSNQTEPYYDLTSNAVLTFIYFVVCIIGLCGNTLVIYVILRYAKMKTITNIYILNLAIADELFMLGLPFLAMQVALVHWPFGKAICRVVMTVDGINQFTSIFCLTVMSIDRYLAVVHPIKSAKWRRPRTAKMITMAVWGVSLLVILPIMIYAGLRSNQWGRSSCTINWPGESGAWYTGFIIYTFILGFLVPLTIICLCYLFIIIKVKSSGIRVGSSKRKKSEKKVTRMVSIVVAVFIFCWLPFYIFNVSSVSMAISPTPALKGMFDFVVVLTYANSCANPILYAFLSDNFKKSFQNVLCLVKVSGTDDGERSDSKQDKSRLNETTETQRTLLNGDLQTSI
# [4] = molecular target: SSTR3 (Homo sapiens, UniProt P32745); conditions: Froidevaux and Eberle 2002; cited from earlier work
# SSTR3, sequence (P32745 whole entry, species assumed): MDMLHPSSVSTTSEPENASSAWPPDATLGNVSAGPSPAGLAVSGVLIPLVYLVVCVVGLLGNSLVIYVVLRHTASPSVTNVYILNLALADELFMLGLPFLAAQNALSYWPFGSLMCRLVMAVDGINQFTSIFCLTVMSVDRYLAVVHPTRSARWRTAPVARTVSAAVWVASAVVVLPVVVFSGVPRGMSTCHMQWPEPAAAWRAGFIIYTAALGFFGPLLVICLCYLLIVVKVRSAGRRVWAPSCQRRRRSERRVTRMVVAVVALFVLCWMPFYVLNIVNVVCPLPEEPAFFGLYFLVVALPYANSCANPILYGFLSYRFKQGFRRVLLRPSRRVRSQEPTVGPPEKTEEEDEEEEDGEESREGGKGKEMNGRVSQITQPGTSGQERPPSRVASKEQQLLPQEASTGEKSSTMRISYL
# [5] = test system: PCK rats; experiment: Hepatic and renal cyst volume and fibrosis score in PCK rats treated with octreotide; assay type: in vivo, rat
# Method: (§2) Three week old PCK rats (n=60) were divided into five groups (three animals of each gender per treatment group). Each group was divided into two subgroups. […] Each animal was injected intraperitoneally every 12 hours. […] The control groups received an equal volume of saline.
# (§3) At 4, 8, 12 and 16 weeks of age, animals were anesthetized with pentobarbital (50 mg/kg body weight, ip). Blood was collected by cardiac puncture for determination of hepatic and renal laboratory parameters and cAMP levels. Liver and kidney tissue sections (5 μm) were stained with hematoxylin-eosin and picrosirius red for analysis using light microscopy. Renal and hepatic fibrosis and cystic scores were measured using Meta-Morph software (Universal Imaging, West Chester, Pa., USA), a light microscope with a color digital camera (Nikon DXM 1200), and a Pentium IBM-compatible computer (Del OptiPlex). To measure the volume of a cyst or fibrosis, a colored threshold was applied at a level that allowed cystic tissue to be distinguished from non-cystic tissue and picrosirius red-positive stained fibrotic tissue to be distinguished from the background. The cystic and fibrotic scores were expressed as a percentage of total tissue.
# [6] = test system: PCK rats; experiment: Hepatic and renal laboratory parameters in PCK rats treated with octreotide; conditions: for Alkaline Phosphatase / Aspartate Aminotransferase / Bilirubin Direct / Bilirubin Total / Blood Urea Nitrogen / Creatinine / Protein total: Octreotide (10 μg)
# Method: as §2, §3
# [7] = 100 μg/kg, 4 weeks, vs 10 μg/kg
# [8] = Female PCK rats, Group I, 4 weeks of treatment, Octreotide (10 μg)
# [9] = Female PCK rats, Group II, 8 weeks of treatment, Octreotide (10 μg)
# [10] = Female PCK rats, Group III, 12 weeks of treatment, Octreotide (10 μg)
# [11] = Female PCK rats, Group IV, 16 weeks of treatment, Octreotide (10 μg)
# [12] = Female PCK rats, HD, 4 weeks of treatment, Octreotide (100 μg)
# [13] = Male PCK rats, Group I, 4 weeks of treatment, Octreotide (10 μg)
# [14] = Male PCK rats, Group II, 8 weeks of treatment, Octreotide (10 μg)
# [15] = Male PCK rats, Group III, 12 weeks of treatment, Octreotide (10 μg)
# [16] = Male PCK rats, Group IV, 16 weeks of treatment, Octreotide (10 μg)
# [17] = Male PCK rats, HD, 4 weeks of treatment, Octreotide (100 μg)
# [18] = octreotide-treated vs saline-treated PCK rats
# [19] = octreotide 10 μg/kg, 4 to 16 weeks
# [20] = Female PCK rats, Group I, 4 weeks of treatment
# [21] = Female PCK rats, Group II, 8 weeks of treatment
# [22] = Female PCK rats, Group III, 12 weeks of treatment
# [23] = Female PCK rats, Group IV, 16 weeks of treatment
# [24] = Female PCK rats, HD, 4 weeks of treatment
# [25] = Male PCK rats, Group I, 4 weeks of treatment
# [26] = Male PCK rats, Group II, 8 weeks of treatment
# [27] = Male PCK rats, Group III, 12 weeks of treatment
# [28] = Male PCK rats, Group IV, 16 weeks of treatment
# [29] = Male PCK rats, HD, 4 weeks of treatment
smiles,measurement,setting,value
"C[C@@H](O)[C@@H]1NC(=O)[C@H](CCCCN)NC(=O)[C@@H](Cc2c[nH]c3ccccc23)NC(=O)[C@H](Cc2ccccc2)NC(=O)[C@@H](NC(=O)[C@H](N)Cc2ccccc2)CSSC[C@@H](C(=O)N[C@H](CO)[C@@H](C)O)NC1=O [Octreotide, octreotide]",effect on liver and kidney weights at higher dose,[1]; [7],more significant effect
same,Kidney weight,[1]; [8],1.31 ± 0.04 % body weight
same,"Kidney weight, decrease (↓) vs saline",[1]; [8],(↓11.8%)
same,Liver weight,[1]; [8],5.34 ± 00.24 % body weight
same,"Liver weight, decrease (↓) vs saline",[1]; [8],(↓10.5%)
same,Kidney weight,[1]; [9],1.35 ± 0.06 % body weight
same,"Kidney weight, decrease (↓) vs saline",[1]; [9],(↓15.0%)
same,Liver weight,[1]; [9],5.37 ± 0.22 % body weight
same,"Liver weight, decrease (↓) vs saline",[1]; [9],(↓15.8%)
same,Kidney weight,[1]; [10],1.42 ± 0.11 % body weight
same,"Kidney weight, decrease (↓) vs saline",[1]; [10],(↓17.9%)
same,Liver weight,[1]; [10],5.43 ± 0.24 % body weight
same,"Liver weight, decrease (↓) vs saline",[1]; [10],(↓18.8%)
same,Kidney weight,[1]; [11],1.48 ± 0.13 % body weight
same,"Kidney weight, decrease (↓) vs saline",[1]; [11],(↓20.6%)
same,Liver weight,[1]; [11],5.62 ± 0.25 % body weight
same,"Liver weight, decrease (↓) vs saline",[1]; [11],(↓21.9%)
same,Kidney weight,[1]; [12],1.14 ± 0.07 % body weight
same,"Kidney weight, decrease (↓) vs saline",[1]; [12],(↓18.6%)
same,Liver weight,[1]; [12],4.7 ± 0.35 % body weight
same,"Liver weight, decrease (↓) vs saline",[1]; [12],(↓19.1%)
same,Kidney weight,[1]; [13],1.43 ± 0.04 % body weight
same,"Kidney weight, decrease (↓) vs saline",[1]; [13],(↓11.2%)
same,Liver weight,[1]; [13],4.76 ± 0.07 % body weight
same,"Liver weight, decrease (↓) vs saline",[1]; [13],(↓9.0%)
same,Kidney weight,[1]; [14],1.52 ± 0.11 % body weight
same,"Kidney weight, decrease (↓) vs saline",[1]; [14],(↓14.6%)
same,Liver weight,[1]; [14],5.24 ± 0.57 % body weight
same,"Liver weight, decrease (↓) vs saline",[1]; [14],(↓12.8%)
same,Kidney weight,[1]; [15],1.53 ± 0.15 % body weight
same,"Kidney weight, decrease (↓) vs saline",[1]; [15],(↓16.8%)
same,Liver weight,[1]; [15],5.31 ± 0.46 % body weight
same,"Liver weight, decrease (↓) vs saline",[1]; [15],(↓17.2%)
same,Kidney weight,[1]; [16],1.57 ± 0.12 % body weight
same,"Kidney weight, decrease (↓) vs saline",[1]; [16],(↓18.9%)
same,Liver weight,[1]; [16],5.64 ± 0.14 % body weight
same,"Liver weight, decrease (↓) vs saline",[1]; [16],(↓19.9%)
same,Kidney weight,[1]; [17],1.27 ± 0.13 % body weight
same,"Kidney weight, decrease (↓) vs saline",[1]; [17],(↓19.3%)
same,Liver weight,[1]; [17],4.18 ± 0.11 % body weight
same,"Liver weight, decrease (↓) vs saline",[1]; [17],(↓15.1%)
same,liver and kidney weights vs saline,[1]; each group studied,significantly decreased
same,body weight vs saline-treated,[1]; male or female PCK rats,No differences
same,cAMP concentration in bile duct and serum at higher dose,[2]; [7],to an even greater extent
same,cAMP levels in freshly isolated bile ducts,[2]; [18],lowered
same,cAMP levels in serum,[2]; [18],lowered
same,binding affinity,[3],high affinity
same,binding affinity,[4],low affinity
same,cystic volume and fibrosis score in liver and kidney at higher dose,"[5]; higher dose (100 μg/kg, 4 weeks)",even more significant reduction
same,hepatic fibrosis,[5]; octreotide 10 μg/kg,significant reduction
same,renal fibrosis,[5]; octreotide 10 μg/kg,significant reduction
same,cystic volume in kidney,[5]; [19],decreased consistently and progressively
same,cystic volume in liver,[5]; [19],decreased consistently and progressively
same,Alkaline Phosphatase,[6]; [20],238.5 ± 23.5 U/L
same,Aspartate Aminotransferase,[6]; [20],135.0 ± 11.4 U/L
same,Bilirubin Direct,[6]; [20],0.1 mg/dL
same,Bilirubin Total,[6]; [20],0.2 mg/dL
same,Blood Urea Nitrogen,[6]; [20],16.7 ± 0.3 mg/dL
same,Creatinine,[6]; [20],0.55 ± 0.06 mg/dL
same,Protein total,[6]; [20],5.70 ± 0.20 g/dL
same,Aspartate Aminotransferase,[6]; [21],211.2 ± 48.4 U/L
same,Bilirubin Direct,[6]; [21],0.1 mg/dL
same,Bilirubin Total,[6]; [21],0.23 ± 0.03 mg/dL
same,Blood Urea Nitrogen,[6]; [21],15.7 ± 1.2 mg/dL
same,Creatinine,[6]; [21],0.57 ± 0.03 mg/dL
same,Protein total,[6]; [21],5.53 ± 0.18 g/dL
same,Alkaline Phosphatase,[6]; [22],237.0 ± 22.1 U/L
same,Aspartate Aminotransferase,[6]; [22],207.5 ± 31.5 U/L
same,Bilirubin Direct,[6]; [22],0.1 mg/dL
same,Bilirubin Total,[6]; [22],0.2 mg/dL
same,Blood Urea Nitrogen,[6]; [22],20.5 ± 0.5 mg/dL
same,Creatinine,[6]; [22],0.6 mg/dL
same,Protein total,[6]; [22],5.2 ± 0.17 g/dL
same,Alkaline Phosphatase,[6]; [23],156.7 ± 4.3 U/L
same,Aspartate Aminotransferase,[6]; [23],165.0 ± 36.46 U/L
same,Bilirubin Direct,[6]; [23],0.1 mg/dL
same,Bilirubin Total,[6]; [23],0.2 mg/dL
same,Blood Urea Nitrogen,[6]; [23],20.5 ± 0.9 mg/dL
same,Creatinine,[6]; [23],0.63 ± 0.03 mg/dL
same,Protein total,[6]; [23],5.6 ± 0.08 g/dL
same,Alkaline Phosphatase,[6]; [24],292.5 ± 14.3 U/L
same,Aspartate Aminotransferase,[6]; [24],197.4 ± 25.7 U/L
same,Bilirubin Direct,[6]; [24],0.1 mg/dL
same,Bilirubin Total,[6]; [24],0.2 mg/dL
same,Blood Urea Nitrogen,[6]; [24],17.0 ± 2.6 mg/dL
same,Creatinine,[6]; [24],0.6 mg/dL
same,Protein total,[6]; [24],5.3 ± 0.12 g/dL
same,Alkaline Phosphatase,[6]; [25],264.5 ± 41.5 U/L
same,Aspartate Aminotransferase,[6]; [25],212.7 ± 41.1 U/L
same,Bilirubin Direct,[6]; [25],0.1 mg/dL
same,Bilirubin Total,[6]; [25],0.17 ± 0.0 mg/dL
same,Blood Urea Nitrogen,[6]; [25],16.0 ± 0.6 mg/dL
same,Creatinine,[6]; [25],0.49 ± 0.04 mg/dL
same,Protein total,[6]; [25],5.74 ± 0.19 g/dL
same,Alkaline Phosphatase,[6]; [26],305.3 ± 20.4 U/L
same,Aspartate Aminotransferase,[6]; [26],188.1 ± 20.6 U/L
same,Bilirubin Direct,[6]; [26],0.1 mg/dL
same,Bilirubin Total,[6]; [26],0.2 mg/dL
same,Blood Urea Nitrogen,[6]; [26],18.3 ± 1.6 mg/dL
same,Creatinine,[6]; [26],0.6 mg/dL
same,Protein total,[6]; [26],5.22 ± 1.4 g/dL
same,Alkaline Phosphatase,[6]; [27],210.5 ± 24.5 U/L
same,Aspartate Aminotransferase,[6]; [27],181.7 ± 39.2 U/L
same,Bilirubin Direct,[6]; [27],0.1 mg/dL
same,Bilirubin Total,[6]; [27],0.3 mg/dL
same,Blood Urea Nitrogen,[6]; [27],21.5 ± 1.5 mg/dL
same,Creatinine,[6]; [27],0.6 mg/dL
same,Protein total,[6]; [27],5.2 ± 0.03 g/dL
same,Alkaline Phosphatase,[6]; [28],189.5 ± 18.5 U/L
same,Aspartate Aminotransferase,[6]; [28],145.1 ± 49.51 U/L
same,Bilirubin Direct,[6]; [28],0.1 mg/dL
same,Bilirubin Total,[6]; [28],0.2 mg/dL
same,Blood Urea Nitrogen,[6]; [28],20.3 ± 0.8 mg/dL
same,Creatinine,[6]; [28],0.65 ± 0.05 mg/dL
same,Protein total,[6]; [28],5.4 ± 0.35 g/dL
same,Alkaline Phosphatase,[6]; [29],276.8 ± 31.2 U/L
same,Aspartate Aminotransferase,[6]; [29],191.0 ± 24.4 U/L
same,Bilirubin Direct,[6]; [29],0.1 mg/dL
same,Bilirubin Total,[6]; [29],0.2 mg/dL
same,Blood Urea Nitrogen,[6]; [29],17.1 ± 1.2 mg/dL
same,Creatinine,[6]; [29],0.5 mg/dL
same,Protein total,[6]; [29],5.4 ± 0.15 g/dL
same,hepatic or renal function,[6]; any dose administered (10 or 100 μg/kg ip every 12 hours),did not affect

# Source: patent US10624946B2, “Treating liver diseases” (Mayo Foundation for Medical Education and Research, priority 2005, dated 2020)
